Data reported in patent EP1431294A1, “VASCULAR WALL-SELECTIVE ACAT INHIBITOR” (Kowa Company Ltd., priority 2001, dated 2003).
One block for each molecule: values may come before it.

How the values were obtained:
[1] = tested on: lipid-loaded model of F1B hamster; test: Arteriosclerotic model animal test (lipid-loaded F1B hamster); conditions: for CE/FC Adrenal Gland / CE/FC Lipid Accumulation to Artery / CE/FC Liver / CE/FC Small Intestine: ratio to control (1.0)
Method: Male hamsters of a Bio F1B strain purchased from Nippon Charles River were randomly grouped so that each group comprised six. As from eight weeks age, they were loaded with a high-fat feed (0.3% of cholesterol and 10% of coconut oil) for ten weeks while the drug was administered by mixing with the feed. After ten weeks, blood was collected and cholesterol in plasma was measured. Further, arterywas excised after fixingbyperfusion with a 10% formalin solution. This was incised, lipid which was accumulated in the artery was stained with Oil Red O and the stained area was measured using an image analyzer.
A high-fat feed (0.3% of cholesterol and 10% of coconut oil) was prepared by way of compounding ratio of cholesterol : coconut oil : feed (CE-2) = 0.03:1:9. Incidentally, a high-fat feed was given to the control group and the administered period was 10 weeks.
Hamster under a non-fasted state was anesthetized, subj ected to an abdominal section to expose the abdominal artery and about 2.5 mL of blood were collected. The collected blood was centrifuged at 3, 000 rpm for 15 minutes to collect the plasma and then total cholesterol (TC) and free cholesterol (FC) in plasma were determined by a Cholesterol E-Test Wako (a cholesterol oxidase DAOS method) and a Free Cholesterol E-Test Wako (a cholesterol oxidase DAOS method), respectively.
About 500 mg of liver, small intestine and adrenal body were excised and washed with a physiological saline solution and lipid concentration in the tissues was measured. In the measurement, 10 mL of chloroform : methanol (2:1) as an extracting solution for lipid in the tissue were placed in the liver and the small intestine, homogenized at 3,000 rpm using a Polytron Homogenizer PT 3100 and allowed to stand at 4°C for one night. The extract was centrifuged at 1,500 rpm for 15 minutes, 0.2 mL of the supernatant liquid was evaporated to dryness using a vacuum pump, the residue was dissolved in 50 µL of isopropanol and each lipid was subjected to the same kits whereupon TC and FC were quantified. With regard to the adrenal body, it was finely cut using scissors and 0.5 mL of chloroform : methanol (2:1) was added thereto followed by being allowed to stand at 4°C for one night. That was centrifuged at 1,500 rpm for 15 minutes, 0.2 mL of the supernatant liquid was evaporated to dryness using a vacuum pump, the residue was dissolved in 50 µL of isopropanol and each lipid was subjected to the same kits whereupon TC and FC were quantified.
With regard to the total cholesterol (TC) in plasma in the group to which the drug was administered, the relative ratio to TC in the control group was used as an indicator while, with regard to the tissue, difference between TC and FC was defined as CE (cholesterol ester) and the lipid-constituting ratio, CE/FC, in each organ was determined whereupon their relative ratio to each control was calculated and used as an indicator. Thus, in those indicators, the control group was defined as 100% and the calculation using the following formula was carried out so as to use a plasma TC lowering action by ACAT inhibitory action to liver and small intestine of the group to which the drug was administered as an indicator and also to use the variation of CE/FC ratio by an ACAT inhibitory action to each organ as an indicator. Indicator (%) for total cholesterol in plasma = [(TC of drug-administered group)/(TC of the control group)] × 100 [formula] Indicator (%) for lipid constituting ratio in each organ = [(CE/FC of drug-administered group)/(CE/FC of the control group)] × 100 [formula]
After collection of the blood, a 18-G injection needle was inserted into apex and perfused with a physiological saline solution (120 mmHg) for about 5minutes. It was further perfused with a 10% neutral formalin buffer (120 mmHg) for about 5 minutes. Bulbar and thoracic artery was excised and fixed in a 10% formalin buffer.

ACAT [2] = molecular target: T1, ACAT (Mus musculus, UniProt Q61263); test: ACAT inhibitory activity test in J774 cells (anti-foaming action); type: cell-based; conditions: for IC50: J774 cells, 25-hydroxycholesterol 10 µg/mL, 18 hours, cholesterol ester per protein
T1 construct: J774 cells or HepG2 cells were sown on a 24-well plate; endogenous in cells; host or cells: J774 cells
T1 sequence (Q61263 1-540): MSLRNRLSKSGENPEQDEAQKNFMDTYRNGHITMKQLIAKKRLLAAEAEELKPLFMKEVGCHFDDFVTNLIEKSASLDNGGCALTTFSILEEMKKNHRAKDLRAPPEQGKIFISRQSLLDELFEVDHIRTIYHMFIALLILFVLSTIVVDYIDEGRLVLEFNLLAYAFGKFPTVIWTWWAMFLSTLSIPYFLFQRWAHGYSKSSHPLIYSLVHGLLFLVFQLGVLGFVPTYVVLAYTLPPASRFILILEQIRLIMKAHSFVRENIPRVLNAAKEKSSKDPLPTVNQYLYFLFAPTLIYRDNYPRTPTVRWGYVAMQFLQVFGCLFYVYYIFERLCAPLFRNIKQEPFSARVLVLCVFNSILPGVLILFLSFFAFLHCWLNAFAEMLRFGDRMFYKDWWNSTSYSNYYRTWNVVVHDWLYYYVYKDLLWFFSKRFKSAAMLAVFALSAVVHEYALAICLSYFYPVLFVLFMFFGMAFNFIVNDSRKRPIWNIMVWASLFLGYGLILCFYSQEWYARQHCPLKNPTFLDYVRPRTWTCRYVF
Method: (§1) J774 cells or HepG2 cells were sown on a 24-well plate and incubation was carried out at 37°C for 24 hours in a 5% CO2 incubator using a Dulbecco's modified Eagle's medium for J774 cells and an Eagle's minimum essential medium for HepG2 cells (where both media contained 10% of fetal bovine serum). […] The medium was taken out, washed with PBS twice, extracted with 1.5 mL of hexane-isopropanol (3:2) and concentrated to dryness. The extract was dissolved in isopropanol containing 0.2 mL of 10% Triton X-100 and then total cholesterol (TC) and free cholesterol (FC) were determined by a Cholesterol E Test Wako (Wako Pure Chemical) and a Free Cholesterol E Test Wako (Wako Pure Chemical), respectively. The residue of the cell after extraction was solubilized with 0.25 mL of 2N NaOH at 37°C for 30 minutes and protein was determined by a BCA Protein Assay Reagent (Pierce). From the differencebetween TC and FC, amount of cholesterolester per protein was calculated and, from the comparative calculation with the control, IC50 value was determined.

ACAT [3] = test: ACAT inhibitory activity test in HepG2 cells; type: cell-based; conditions: 25-hydroxycholesterol 10 µg/mL, 18 hours, cholesterol ester per protein
Method: as §1

[4] = Oral absorption test in rats under a fed condition (plasma concentration); type: in vivo; conditions: compared with the compound of Example 1; rats, 30 mg/kg
Method: A solution of the compound of the present invention (dissolved in a mixture of water : PEG 400 = 1:4) or a suspension in 0.5% methyl cellulose (MC) was compulsorily administered per os at. the dose of 30 mg/kg to three rats under a fed condition. Blood after the administration was periodically collected and its concentration in plasma was measured.
The organic layer (upper layer) was collected, the solvent was evaporated in a nitrogen stream, the residue was dissolved in 0.2 mL of a mobile phase (refer to the following) and 80 µL thereof were measured under the following analytical conditions.
The organic layer was collected, the solvent was evaporated in a nitrogen stream, the residue was dissolved in 0.2 mL of a mobile phase (refer to the following) and 80 µL thereof were measured under the following condition for high-performance liquid chromatography. Condition for detection: • (Detector: Single-stage quadrupole mass spectrometer • Ionization method: Atmospheric pressure chemical ionization method • Temperature of nebulizer: 475°C • Corona voltage: 3 kV • Monitoring ion: m/z 569 (hydrogen addition ion of the compound of Example 78), 549 (hydrogen addition ion of the compound of Example 85)) Condition for separation: • (Column: Symmetry RP8 manufactured by Waters (3.0 mmφ × 150 mm) • Temperature of column: 45°C • Mobile phase: a solution where 0.1% ammonium formate (pH 4)/methanol/acetonitrile are mixed in […] • Flow rate: 0.8 mL/min)
To 150 µL of plasma were added a 0.1 mol/L aqueous solution of sodium hydroxide and 0.2 mL of an analogous compound (500 ng/mL of the compound of Example 28 of the Japanese Patent Application No. 8/158,743, i.e. 8-(benzimidazol-2-ylthio)-N-(2,6-diisopropylphenyl)octanamide as an internal standard, stirred and extracted with 6 mL of an isopropanol/hexane (5: 95) solution. The organic layer was collected, the solvent was evaporated in a nitrogen stream, the residue was dissolved in 0.2 mL of a mobile phase (refer to the following) and 80 µL thereof were measured under the following condition for high-performance liquid chromatography.

[5] = as above; type: in vivo; conditions: rat, 30 mg/kg
[6] = dose 10 mg/kg in feed, 10 weeks
[7] = dose 30 mg/kg in feed, 10 weeks

IC50 (ACAT [2]): 130 nM | IC50 (ACAT [3]): 780 nM | improving effect in oral absorption in terms of Cmax value [4]: about 4.3 fold | AUC(0-inf) ([5]; medium 0.05N (Aq HCl)): 1100 ng·h/mL | Cmax ([5]; medium 0.05N (Aq HCl)): 470 ng/mL
Structure (SMILES): CC(C)c1cc(O)cc(C(C)C)c1NC(=O)CN1CCN(CCSc2nc3ccccc3o2)CC1 [Example 72, 2-[4-[2-(benzoxazol-2-ylthio)ethyl]piperazin-1-yl]-N-(2,6-diisopropyl-4-hydroxyphenyl) acetamide]

IC50 (ACAT [2]): 19 nM | IC50 (ACAT [3]): 680 nM | AUC(0-inf) ([5]; medium PEG 400): 71.8 ng·h/mL | Cmax ([5]; medium PEG 400): 17.6 ng/mL
Structure (SMILES): CC(C)c1cccc(C(C)C)c1NC(=O)CN1CCN(CCSc2nc3cccc(C(F)(F)F)c3o2)CC1 [Example 85, 2-[4-[2-(7-trifluoromethylbenzoxazol-2-ylthio)ethyl]piperazin-1-yl]-N-(2,6-diisopropylphenyl)acetamide]

Continued, molecule first:

Structure (SMILES): CSc1cc(C)nc(SC)c1NC(=O)CN1CCN(CCSc2nc3ccccc3o2)CC1 [Example 24, N-[2,4-bis (methylthio) -6-methyl-3-pyridyl]-2-[4-[2-(benzoxazol-2-ylthio)ethyl]-piperazin-1-yl]acetamide]
dose from which suppression of lipid accumulation was effective ([1]; F1B hamsters, drug in high-fat feed, 10 weeks): ≥ 3 mg/kg | plasma cholesterol at doses effective in suppression of lipid accumulation ([1]; F1B hamsters, total cholesterol in plasma relative to control, Dunnett's test): accompanied by a significant decrease of plasma cholesterol | CE/FC Adrenal Gland ([1]; dose 1 mg/kg in feed, 10 weeks): 0.6 | CE/FC Lipid Accumulation to Artery ([1]; dose 1 mg/kg in feed, 10 weeks): 0.91 | CE/FC Liver ([1]; dose 1 mg/kg in feed, 10 weeks): 0.89 | CE/FC Small Intestine ([1]; dose 1 mg/kg in feed, 10 weeks): 0.79 | CE/FC Adrenal Gland ([1]; dose 3 mg/kg in feed, 10 weeks): 0.34 | CE/FC Lipid Accumulation to Artery ([1]; dose 3 mg/kg in feed, 10 weeks): 0.37 | CE/FC Liver ([1]; dose 3 mg/kg in feed, 10 weeks): 0.36 | CE/FC Small Intestine ([1]; dose 3 mg/kg in feed, 10 weeks): 0.45 | CE/FC Adrenal Gland [1, 6]: 0.11 | CE/FC Lipid Accumulation to Artery [1, 6]: 0.32 | CE/FC Liver [1, 6]: 0.16 | CE/FC Small Intestine [1, 6]: 0.21 | CE/FC Adrenal Gland [1, 7]: 0.11 | CE/FC Lipid Accumulation to Artery [1, 7]: 0.28 | CE/FC Liver [1, 7]: 0.09 | CE/FC Small Intestine [1, 7]: 0.13

Structure (SMILES): COc1cc(C(C)C)c(NC(=O)CN2CCN(CCSc3nc4ccccc4o3)CC2)c(C(C)C)c1 [Example 75, 2-[4-[2-(benzoxazol-2-ylthio)ethyl]piperazin-1-yl]-N-(2,6-diisopropyl-4-methoxyphenyl)acetamide]
macrophage selectivity (IC50 (HepG2)/IC50 (J774)) (ACAT [2]): not less than 96 fold | IC50 (ACAT [2]): 100 nM | IC50 (ACAT [3]): 10000 nM

Structure (SMILES): CCOCCOc1cc(C(C)C)c(NC(=O)CN2CCN(CCSc3nc4ccccc4o3)CC2)c(C(C)C)c1 [Example 78, 2-[4-[2-(benzoxazol-2-ylthio)ethyl]piperazin-1-yl]-N-[2,6-diisopropyl-4-(2-ethoxyethyl)oxyphenyl]acetamide]
IC50 (ACAT [2]): 14 nM | AUC(0-inf) ([5]; medium PEG 400:DMSO = 5:1): 29.8 ng·h/mL | Cmax ([5]; medium PEG 400:DMSO = 5:1): 14.8 ng/mL
